# Tested on: hepatic bile of patients with intrahepatic cholestasis, cholesterol microcholelithiasis and MDR3 gene abnormality
# Test: Bile lipid composition of the hepatic bile from patients receiving treatment with UDCA
# Assay type: in vivo, human
# Details: for Cholesterol saturation index (CSI): calculated from Carey's critical tables
# Procedure: The concentration of total bile salts is measured by an enzymatic technique using 3α-hydroxysteroid dehydrogenase (Enzabile, Nycomed, Oslo, Norway). The content of total phospholipids is determined by an enzymatic method in the presence of phospholipase D and choline oxidase. The cholesterol is determined by an enzymatic reaction with cholesterol oxidase or cholesterol esterase. The cholesterol saturation indices for the hepatic bile samples are calculated from Carey's critical tables (J. Lipid Res., 1978, 19, 945-955).
# The bile lipid composition of the hepatic bile was studied using samples obtained by radioscopy of the duodenum (patients 2 and 3) or using a T tube (patients 5 and 6). The results obtained in the untreated patients or the patients receiving treatment with UDCA are given respectively in Tables V and VI below.
# [1] = Case 5, receiving treatment with UDCA
# [2] = Case 6, receiving treatment with UDCA
smiles,measurement,setting,value
"C[C@H](CCC(=O)O)[C@H]1CC[C@H]2[C@@H]3[C@@H](O)C[C@@H]4C[C@H](O)CC[C@]4(C)[C@H]3CC[C@]12C [UDCA, ursodeoxycholic acid]",Bile lipid classes: Bile salts (BS),[1],47.5 mol %
same,Bile lipid classes: Cholesterol (CH),[1],16.8 mol %
same,Bile lipid classes: Phospholipids (PL),[1],35.7 mol %
same,Concentration of bile PL,[1],7.77
same,Lipid ratios: CH/BS,[1],0.35
same,Lipid ratios: CH/PL,[1],0.47
same,Lipid ratios: PL/BS,[1],0.75
same,Cholesterol saturation index (CSI),[1],4.0
same,Bile lipid classes: Bile salts (BS),[2],72 mol %
same,Bile lipid classes: Cholesterol (CH),[2],8.2 mol %
same,Bile lipid classes: Phospholipids (PL),[2],19.7 mol %
same,Concentration of bile PL,[2],6.03
same,Lipid ratios: CH/BS,[2],0.11
same,Lipid ratios: CH/PL,[2],0.42
same,Lipid ratios: PL/BS,[2],0.27
same,Cholesterol saturation index (CSI),[2],1.8

# Source: US8158352B2, “Screening of a novel hepatic syndrome and its uses” (Assistance Publique-Hopitaux de Paris, priority 2000, dated 2012)
